# Reference: PMC6138237, “Machine intelligence decrypts β-lapachone as an allosteric 5-lipoxygenase inhibitor” (Chemical Science, 2018)
# Like-named read-outs stand apart in the source and are kept apart here.
# Key:
# CDK1 = CDK1 (Homo sapiens, UniProt P06493); assay: ExpresS Diversity Kinase Profile, Cerep (LANCE): CDK1; type: biochemical
# 5-LO [1] = biological target: T1, 5-LO (Homo sapiens, UniProt P09917); type: biochemical
# T1 sequence (P09917 1-674): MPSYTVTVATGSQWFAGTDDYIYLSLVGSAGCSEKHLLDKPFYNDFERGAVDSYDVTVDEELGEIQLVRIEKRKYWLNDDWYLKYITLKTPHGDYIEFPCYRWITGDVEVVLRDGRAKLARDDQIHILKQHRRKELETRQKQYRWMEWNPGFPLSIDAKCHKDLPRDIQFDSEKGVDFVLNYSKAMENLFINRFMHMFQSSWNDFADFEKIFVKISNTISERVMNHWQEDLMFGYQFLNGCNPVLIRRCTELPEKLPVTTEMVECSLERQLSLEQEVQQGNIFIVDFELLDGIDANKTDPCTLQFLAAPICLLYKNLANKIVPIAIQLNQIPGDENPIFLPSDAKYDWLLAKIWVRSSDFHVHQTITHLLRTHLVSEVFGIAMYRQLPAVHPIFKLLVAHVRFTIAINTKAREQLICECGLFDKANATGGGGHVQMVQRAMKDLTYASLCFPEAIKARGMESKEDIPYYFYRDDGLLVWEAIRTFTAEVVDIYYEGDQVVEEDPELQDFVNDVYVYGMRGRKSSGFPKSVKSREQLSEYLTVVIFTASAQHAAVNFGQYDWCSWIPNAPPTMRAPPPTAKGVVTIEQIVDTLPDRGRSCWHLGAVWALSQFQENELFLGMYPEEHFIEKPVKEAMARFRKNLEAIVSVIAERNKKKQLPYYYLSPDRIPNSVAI
# TRPV1 = TRPV1 (Homo sapiens, UniProt Q8NER1); assay: TRPV1 functional agonist assay, Cerep (intracellular Ca2+); type: cell-based; conditions: TRPV1 (agonist), 150 µM
# [2] = Dynamic light scattering (colloidal aggregation); type: physicochemical; conditions: for Count rate (kcps): 25 °C
# CDK2 = CDK2 (Homo sapiens, UniProt P24941); assay: ExpresS Diversity Kinase Profile, Cerep (LANCE): CDK2; type: biochemical
# ERK2 = ERK2 (Homo sapiens, UniProt P28482); assay: ExpresS Diversity Kinase Profile, Cerep (LANCE): ERK2; type: biochemical
# PAK4 = PAK4 (Homo sapiens, UniProt O96013); assay: ExpresS Diversity Kinase Profile, Cerep (LANCE): PAK4; type: biochemical
# 12-LO = biological target: T2, 12-LO (Homo sapiens, UniProt P18054); assay: 12-LO inhibition in intact human neutrophils
# T2 sequence (P18054 1-663): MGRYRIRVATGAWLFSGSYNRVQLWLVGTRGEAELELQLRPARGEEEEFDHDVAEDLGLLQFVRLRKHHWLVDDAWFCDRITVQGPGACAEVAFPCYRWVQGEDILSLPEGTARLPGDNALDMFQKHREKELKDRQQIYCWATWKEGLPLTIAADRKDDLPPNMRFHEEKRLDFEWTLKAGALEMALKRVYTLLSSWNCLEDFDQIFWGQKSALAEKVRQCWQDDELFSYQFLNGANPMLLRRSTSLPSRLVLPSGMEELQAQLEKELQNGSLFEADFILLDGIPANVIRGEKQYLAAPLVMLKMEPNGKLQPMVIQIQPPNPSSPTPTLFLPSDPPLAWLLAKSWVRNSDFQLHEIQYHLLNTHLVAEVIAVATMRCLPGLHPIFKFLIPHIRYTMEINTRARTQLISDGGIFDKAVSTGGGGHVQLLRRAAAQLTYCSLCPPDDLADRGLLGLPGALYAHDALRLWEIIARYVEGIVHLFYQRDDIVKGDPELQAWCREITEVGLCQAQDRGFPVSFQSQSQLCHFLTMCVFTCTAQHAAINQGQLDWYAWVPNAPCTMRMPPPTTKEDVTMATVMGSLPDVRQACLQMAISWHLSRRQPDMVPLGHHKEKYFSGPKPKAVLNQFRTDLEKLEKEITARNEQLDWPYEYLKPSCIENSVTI
# EP2 [3] = biological target: T3, EP2 (Homo sapiens, UniProt P43116); assay: EP2 functional agonist assay, Cerep (cAMP, HTRF)
# EP4 = EP4 (Homo sapiens, UniProt P35408); assay: EP4 functional agonist assay, Cerep (cAMP, HTRF)
# HL-60 cells = assay: HL-60 cell viability assay (Alamar Blue, 48 hours); conditions: Homo sapiens, HL-60, 48 h
# Escherichia coli K12 = assay: Minimum inhibitory concentration assay, Escherichia coli; conditions: concentrations up to 50 µM
# EP2 [4] = biological target: T3, EP2; assay: EP2 functional antagonist assay, Cerep (PGE2 100 nM, cAMP)
# [5] = test system: Staphylococcus aureus ATCC 25923; assay: Minimum inhibitory concentration assay, Staphylococcus aureus; conditions: concentrations up to 50 µM
# 5-LO [6] = biological target: T1, 5-LO; assay: 5-LO product formation in intact human neutrophils stimulated with A23187 plus arachidonic acid
# [7] = read-out: % of control values, 1st measurement
# [8] = read-out: % of control values, 2nd measurement
# [9] = n = 2, read-out: % Inhibition of control values, Mean
# [10] = read-out: % Inhibition of control values, 1st measurement
# [11] = read-out: % Inhibition of control values, 2nd measurement
# [12] = read-out: % of control values, Mean
# Sequence of EP4 (P35408 whole entry): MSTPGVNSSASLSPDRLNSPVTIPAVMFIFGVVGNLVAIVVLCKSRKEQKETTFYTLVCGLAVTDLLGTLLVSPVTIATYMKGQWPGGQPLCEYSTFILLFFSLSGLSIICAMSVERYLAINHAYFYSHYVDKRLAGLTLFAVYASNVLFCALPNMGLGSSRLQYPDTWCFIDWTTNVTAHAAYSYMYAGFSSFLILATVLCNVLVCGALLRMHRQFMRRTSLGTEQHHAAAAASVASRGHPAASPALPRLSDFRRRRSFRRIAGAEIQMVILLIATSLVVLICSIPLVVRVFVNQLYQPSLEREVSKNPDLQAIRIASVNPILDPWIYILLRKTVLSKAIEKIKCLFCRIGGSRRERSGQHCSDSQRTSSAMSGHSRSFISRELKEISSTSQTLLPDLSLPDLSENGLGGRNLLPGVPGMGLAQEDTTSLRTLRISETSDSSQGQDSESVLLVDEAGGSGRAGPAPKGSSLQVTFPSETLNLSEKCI
# Sequence of CDK1 (P06493 whole entry): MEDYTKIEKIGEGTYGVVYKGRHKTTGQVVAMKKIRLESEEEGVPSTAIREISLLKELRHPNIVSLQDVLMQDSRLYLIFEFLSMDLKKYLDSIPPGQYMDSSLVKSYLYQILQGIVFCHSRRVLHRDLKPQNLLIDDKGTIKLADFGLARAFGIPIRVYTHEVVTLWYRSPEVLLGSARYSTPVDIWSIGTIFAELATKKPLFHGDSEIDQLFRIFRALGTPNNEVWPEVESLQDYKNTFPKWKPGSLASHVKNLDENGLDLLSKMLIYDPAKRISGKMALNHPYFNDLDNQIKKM
# Sequence of CDK1 (P14635 whole entry partner): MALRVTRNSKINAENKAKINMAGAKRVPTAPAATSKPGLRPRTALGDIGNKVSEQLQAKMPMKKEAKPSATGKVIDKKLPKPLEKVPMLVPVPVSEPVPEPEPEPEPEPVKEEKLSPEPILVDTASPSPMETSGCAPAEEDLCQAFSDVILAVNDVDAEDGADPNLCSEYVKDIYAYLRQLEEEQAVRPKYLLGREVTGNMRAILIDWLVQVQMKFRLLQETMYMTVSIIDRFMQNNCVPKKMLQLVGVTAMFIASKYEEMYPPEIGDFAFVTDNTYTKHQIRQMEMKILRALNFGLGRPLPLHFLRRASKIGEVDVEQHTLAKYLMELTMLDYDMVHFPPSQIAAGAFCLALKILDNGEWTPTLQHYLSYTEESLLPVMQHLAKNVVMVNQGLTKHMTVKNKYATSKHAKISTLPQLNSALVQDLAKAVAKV
# Sequence of TRPV1 (Q8NER1 whole entry): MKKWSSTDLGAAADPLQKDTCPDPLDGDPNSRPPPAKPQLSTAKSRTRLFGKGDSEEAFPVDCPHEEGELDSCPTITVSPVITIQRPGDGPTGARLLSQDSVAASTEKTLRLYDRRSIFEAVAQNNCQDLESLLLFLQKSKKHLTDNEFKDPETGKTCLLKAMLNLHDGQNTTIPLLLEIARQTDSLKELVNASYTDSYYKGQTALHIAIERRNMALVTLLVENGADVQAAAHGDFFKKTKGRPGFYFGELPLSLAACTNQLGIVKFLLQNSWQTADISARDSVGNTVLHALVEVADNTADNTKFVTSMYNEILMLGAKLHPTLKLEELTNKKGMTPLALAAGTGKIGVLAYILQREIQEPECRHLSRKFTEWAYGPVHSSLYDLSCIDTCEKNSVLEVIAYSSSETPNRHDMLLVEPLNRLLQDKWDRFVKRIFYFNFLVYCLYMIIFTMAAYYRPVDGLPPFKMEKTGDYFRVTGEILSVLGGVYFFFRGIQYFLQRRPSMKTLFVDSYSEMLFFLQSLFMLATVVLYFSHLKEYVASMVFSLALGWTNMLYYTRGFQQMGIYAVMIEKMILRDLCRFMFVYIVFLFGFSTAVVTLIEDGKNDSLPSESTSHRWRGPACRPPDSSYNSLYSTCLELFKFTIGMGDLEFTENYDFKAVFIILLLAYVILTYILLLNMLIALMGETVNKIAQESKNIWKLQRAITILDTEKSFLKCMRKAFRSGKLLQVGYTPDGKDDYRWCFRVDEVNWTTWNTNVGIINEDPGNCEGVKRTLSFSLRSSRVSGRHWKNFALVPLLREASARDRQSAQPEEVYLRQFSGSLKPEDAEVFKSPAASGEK
# Sequence of ERK2 (P28482 whole entry): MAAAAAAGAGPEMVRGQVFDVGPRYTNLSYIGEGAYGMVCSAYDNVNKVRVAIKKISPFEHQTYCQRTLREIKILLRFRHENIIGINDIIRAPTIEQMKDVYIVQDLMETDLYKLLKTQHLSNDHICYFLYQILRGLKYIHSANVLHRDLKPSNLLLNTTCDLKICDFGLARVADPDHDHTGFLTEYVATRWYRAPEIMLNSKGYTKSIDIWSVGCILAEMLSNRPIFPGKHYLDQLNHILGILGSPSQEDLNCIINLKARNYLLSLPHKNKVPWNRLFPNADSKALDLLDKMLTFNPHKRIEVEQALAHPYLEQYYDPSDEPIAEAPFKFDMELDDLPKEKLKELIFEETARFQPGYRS
# T3 sequence (P43116 whole entry): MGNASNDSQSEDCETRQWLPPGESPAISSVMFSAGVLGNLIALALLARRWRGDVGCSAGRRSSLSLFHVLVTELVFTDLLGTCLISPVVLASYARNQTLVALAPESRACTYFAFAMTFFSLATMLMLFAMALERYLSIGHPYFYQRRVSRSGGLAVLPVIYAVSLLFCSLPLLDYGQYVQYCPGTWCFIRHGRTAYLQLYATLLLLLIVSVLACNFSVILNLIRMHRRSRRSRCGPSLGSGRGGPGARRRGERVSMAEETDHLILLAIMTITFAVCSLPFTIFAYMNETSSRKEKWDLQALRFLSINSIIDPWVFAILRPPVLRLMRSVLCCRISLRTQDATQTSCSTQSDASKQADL
# Sequence of PAK4 (O96013 whole entry): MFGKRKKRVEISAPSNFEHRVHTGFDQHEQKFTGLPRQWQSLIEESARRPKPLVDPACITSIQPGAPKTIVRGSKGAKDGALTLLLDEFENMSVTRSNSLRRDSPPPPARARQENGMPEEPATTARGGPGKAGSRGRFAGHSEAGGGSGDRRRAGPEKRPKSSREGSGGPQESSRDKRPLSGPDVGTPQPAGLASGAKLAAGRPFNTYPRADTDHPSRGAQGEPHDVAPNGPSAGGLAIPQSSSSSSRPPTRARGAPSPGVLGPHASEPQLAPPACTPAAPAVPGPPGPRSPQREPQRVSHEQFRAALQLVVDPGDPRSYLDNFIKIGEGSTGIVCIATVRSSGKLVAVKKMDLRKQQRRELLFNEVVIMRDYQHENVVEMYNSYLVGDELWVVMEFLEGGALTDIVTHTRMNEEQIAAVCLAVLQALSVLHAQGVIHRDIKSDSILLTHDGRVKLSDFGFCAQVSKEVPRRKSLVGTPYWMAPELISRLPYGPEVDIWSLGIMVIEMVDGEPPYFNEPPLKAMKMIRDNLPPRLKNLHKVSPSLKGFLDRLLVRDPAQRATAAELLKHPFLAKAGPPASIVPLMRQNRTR
compound,measurement,setting,value
"CN[C@@H]1C[C@H]2O[C@@](C)([C@@H]1OC)n1c3ccccc3c3c4c(c5c6ccccc6n2c5c31)C(=O)NC4 [Staurosporine, reference compound]",nHill,CDK1; control,1.1
CC1(C)CCC2=C(O1)c1ccccc1C(=O)C2=O [β-Lapachone],inhibition of 5-LO at varying arachidonic acid concentrations,"5-LO [1]; AA 2.5–40 μM, n = 3",non-competitive inhibition
same,IC50,"5-LO [1]; IC50 (3 μg mL^–1, PC), competition with phosphatidylcholine 3 μg/mL, n = 3",100 nM
same,IC50,"5-LO [1]; IC50 (30 μg mL^–1, PC), competition with phosphatidylcholine 30 μg/mL, n = 3",1000 nM
same,IC50,"5-LO [1]; IC50 (with DTT), cell-free, reducing conditions, 1 mM dithiothreitol (DTT), n = 3",240 nM
same,IC50,"5-LO [1]; IC50 (without Triton X100), cell-free, plus 1 mM DTT, no Triton X100, n = 3",120 nM
same,IC50,"5-LO [1]; cell-free, absence of DTT, n = 3, read-out: IC50 (without DTT)",> 30000 nM
same,IC50,"5-LO [1]; cell-free, plus 1 mM DTT, 0.01% Triton X100, n = 3, read-out: IC50 (with Triton X100)",90 nM
same,5-LO activity upon wash-out,"5-LO [1]; wash-out experiment, 10-fold dilution, plus 1 mM DTT",reinstated
same,remaining activity at 150 µM,"TRPV1; n = 2, read-out: % of control values, Mean",-4.6%
same,remaining activity at 150 µM,TRPV1; [7],-7.3%
same,remaining activity at 150 µM,TRPV1; [8],-1.9%
same,Count rate (kcps),[2]; 25 µM in H2O + 0.1% DMSO,60.7 kcps
same,Count rate (kcps),[2]; 50 µM in H2O + 0.1% DMSO,47.6 kcps
same,Count rate (kcps),[2]; 100 µM in H2O + 0.1% DMSO,136.1 kcps
same,aggregation by dynamic light scattering,[2]; at relevant concentrations,no aggregation
same,inhibition at 150 µM,"CDK1; Flag: Interference, read-out: % Inhibition of control values, 1st measurement",66%
same,inhibition at 150 µM,"CDK1; Flag: Interference, read-out: % Inhibition of control values, 2nd measurement",68%
same,inhibition at 150 µM,"CDK1; n = 2, Flag: Interference, read-out: % Inhibition of control values, Mean",67%
same,inhibition at 150 µM,CDK2; [9],78.2%
same,inhibition at 150 µM,CDK2; [10],79.4%
same,inhibition at 150 µM,CDK2; [11],77.1%
same,inhibition at 150 µM,ERK2; [9],45.9%
same,inhibition at 150 µM,ERK2; [10],44.8%
same,inhibition at 150 µM,ERK2; [11],46.9%
same,inhibition at 150 µM,PAK4; [9],-1.9%
same,inhibition at 150 µM,PAK4; [10],-3.7%
same,inhibition at 150 µM,PAK4; [11],0%
same,IC50,12-LO,> 30000 nM
same,remaining activity at 150 µM,EP2 [3]; [7],12.3%
same,remaining activity at 150 µM,EP2 [3]; [8],14.8%
same,remaining activity at 150 µM,EP2 [3]; [12],13.5%
same,IC50,EP4,~100000 nM
same,remaining activity at 150 µM,EP4; [7],54.6%
same,remaining activity at 150 µM,EP4; [8],51.7%
same,remaining activity at 150 µM,EP4; [12],53.1%
same,IC50,HL-60 cells; read-out: IC50 (control),390 nM
same,IC50,HL-60 cells; read-out: IC50 (differentiated),180 nM
same,phenotypic effects on Escherichia coli,Escherichia coli K12,No phenotypic effects
same,IC50,EP2 [4],~100000 nM
same,phenotypic effects on Staphylococcus aureus,[5],No phenotypic effects
same,IC50,"5-LO [6]; IC50 (5-LO), intact human neutrophils, without DTT, n = 3",8600 nM
same,IC50,"5-LO [6]; IC50, intact human neutrophils supplemented with 1 mM DTT, n = 4",420 nM
